Measured values: the supplement of paper PMC10883282

What was measured:
Experiment in all cases: relative viability vs DMSO control (72 h) (fraction); higher = more viable cells
[1] = test system: HT1080
Method in brief: (§1)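 Sarcoma cell lines were seeded in 384-well plates at densities set to reach 80–90% confluence. After 24 h, 2.5 µl of serially diluted compound was added (source plates 10 mM to 0.0002 mM), and plates were held 72 h at 37 °C, 5% CO2, with 0.1% DMSO vehicle and a 5 µM positive control. Relative viability came from ATPLite readings as percent growth, averaged over up to triplicate wells. Data were rescaled so full viability equals 1 and none equals 0.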

[2] = test system: KHOS-NP
Method in brief: as §1

[3] = test system: SK-ES-1
Method in brief: as §1

[4] = test system: RD-ES
Method in brief: as §1

[5] = test system: SW982
Method in brief: as §1

[6] = test system: KHOS-240S
Method in brief: as §1

[7] = test system: G401
Method in brief: as §1

[8] = test system: A204
Method in brief: as §1

[9] = test system: SW1353
Method in brief: as §1

[10] = test system: SW872
Method in brief: as §1

[11] = test system: SYO-1
Method in brief: as §1

[12] = test system: SW684
Method in brief: as §1

CC#CC(=O)N1CCC[C@H]1c1nc(-c2ccc(C(=O)Nc3ccccn3)cc2)c2c(N)nccn12 [Acalabrutinib]
Conditions	relative viability
[1], 0.00017 µM	1.03
[1], 0.00051 µM	1.05
[1], 0.00152 µM	1.05
[1], 0.00457 µM	1.036
[1], 0.01372 µM	1.01
[1], 0.04115 µM	1.029
[1], 0.1235 µM	1.04
[1], 0.3704 µM	1.07
[1], 1.111 µM	1.03
[1], 3.333 µM	1.08
[1], 10 µM	1.04
[2], 0.00017 µM	1.03
[2], 0.00051 µM	1.03
[2], 0.00152 µM	1.04
[2], 0.00457 µM	1.04
[2], 0.01372 µM	1.02
[2], 0.04115 µM	1.03
[2], 0.1235 µM	1.03
[2], 0.3704 µM	1.05
[2], 1.111 µM	1.04
[2], 3.333 µM	1.08
[2], 10 µM	1.08
[3], 0.00017 µM	0.978
[3], 0.00051 µM	0.989
[3], 0.00152 µM	1.04
[3], 0.00457 µM	1.03
[3], 0.01372 µM	0.996
[3], 0.04115 µM	0.998
[3], 0.1235 µM	0.999
[3], 0.3704 µM	1.02
[3], 1.111 µM	1.012
[3], 3.333 µM	1.02
[3], 10 µM	0.983
[4], 0.00017 µM	0.9637
[4], 0.00051 µM	0.979
[4], 0.00152 µM	0.998
[4], 0.00457 µM	0.982
[4], 0.01372 µM	1
[4], 0.04115 µM	0.99
[4], 0.1235 µM	0.992
[4], 0.3704 µM	1.021
[4], 1.111 µM	1.02
[4], 3.333 µM	0.974
[4], 10 µM	0.9313
[5], 0.00017 µM	1.048
[5], 0.00051 µM	1.037
[5], 0.00152 µM	1.05
[5], 0.00457 µM	1.05
[5], 0.01372 µM	1.05
[5], 0.04115 µM	1.034
[5], 0.1235 µM	1.02
[5], 0.3704 µM	1.02
[5], 1.111 µM	1.02
[5], 3.333 µM	1.01
[5], 10 µM	0.955
[6], 0.00017 µM	1.06
[6], 0.00051 µM	1.06
[6], 0.00152 µM	1.07
[6], 0.00457 µM	1.09
[6], 0.01372 µM	1.06
[6], 0.04115 µM	1.06
[6], 0.1235 µM	1.03
[6], 0.3704 µM	1.04
[6], 1.111 µM	1.041
[6], 3.333 µM	1.04
[6], 10 µM	1.05
[7], 0.00017 µM	0.98
[7], 0.00051 µM	0.991
[7], 0.00152 µM	0.997
[7], 0.00457 µM	1.02
[7], 0.01372 µM	1.01
[7], 0.04115 µM	1.01
[7], 0.1235 µM	0.985
[7], 0.3704 µM	0.996
[7], 1.111 µM	1.02
[7], 3.333 µM	0.997
[7], 10 µM	0.917
[8], 0.00017 µM	1.07
[8], 0.00051 µM	1.07
[8], 0.00152 µM	1.06
[8], 0.00457 µM	1.09
[8], 0.01372 µM	1.1
[8], 0.04115 µM	1.09
[8], 0.1235 µM	1.07
[8], 0.3704 µM	1.05
[8], 1.111 µM	1.05
[8], 3.333 µM	1.02
[8], 10 µM	0.872
[9], 0.00017 µM	0.974
[9], 0.00051 µM	0.933
[9], 0.00152 µM	0.942
[9], 0.00457 µM	0.946
[9], 0.01372 µM	0.947
[9], 0.04115 µM	0.944
[9], 0.1235 µM	0.957
[9], 0.3704 µM	0.936
[9], 1.111 µM	0.962
[9], 3.333 µM	0.8927
[9], 10 µM	0.827
[10], 0.00017 µM	0.999
[10], 0.00051 µM	1.02
[10], 0.00152 µM	1.01
[10], 0.00457 µM	1.01
[10], 0.01372 µM	0.975
[10], 0.04115 µM	0.95
[10], 0.1235 µM	0.979
[10], 0.3704 µM	0.997
[10], 1.111 µM	1.04
[10], 3.333 µM	1.03
[10], 10 µM	0.987
[11], 0.00017 µM	0.958
[11], 0.00051 µM	0.946
[11], 0.00152 µM	0.941
[11], 0.00457 µM	0.937
[11], 0.01372 µM	0.945
[11], 0.04115 µM	0.932
[11], 0.1235 µM	0.94
[11], 0.3704 µM	0.934
[11], 1.111 µM	0.928
[11], 3.333 µM	0.948
[11], 10 µM	0.898
[12], 0.00017 µM	1.11
[12], 0.00051 µM	1.14
[12], 0.00152 µM	1.09
[12], 0.00457 µM	1.13
[12], 0.01372 µM	1.13
[12], 0.04115 µM	1.1
[12], 0.1235 µM	1.11
[12], 0.3704 µM	1.15
[12], 1.111 µM	1.14
[12], 3.333 µM	1.12
[12], 10 µM	1.08
